Assay results published in patent US12060387B2, “Polypeptide-based shuttle agents for improving the transduction efficiency of polypeptide cargos to the cytosol of target eukaryotic cells, uses thereof, methods and kits relating to same” (priority 2015, dated 2024).
Read-outs that look alike come from different tables or passages of the source. Where no end group is shown, it is not given here.

Columns and labels:
[1] = Cell toxicity / % cell viability by flow cytometry (cells in total events v. untreated); type: cell-based, Human; conditions: human, HeLa cells, HeLa, GFP-NLS 5 μM; for viability at 10 s, 35 µM: shuttle 35 μM; for viability at 10 s, 50 µM: shuttle 50 μM
From the text: (§2) The fluorescence of GFP was quantified using flow cytometry (Accuri C6, Becton, Dickinson and Company (BD)). Untreated cells were used to establish a baseline in order to quantify the increased fluorescence due to the internalization of the fluorescent protein in treated cells. The percentage of cells with a fluorescence signal above the maximum fluorescence of untreated cells, “mean %” or “Pos cells (%)”, is used to identify positive fluorescent cells. “Relative fluorescence intensity (FL1-A)” corresponds to the mean of all fluorescence intensities from each cell with a fluorescent signal after fluorescent protein delivery with the shuttle agent. Also, the events scanned by flow cytometry corresponding to cells (size and granularity) were analyzed. The cellular toxicity (% cell viability) was monitored comparing the percentage of cells in the total events scanned of treated cells comparatively to untreated cells.

[2] = system: HeLa cells; test: as above; type: cell-based, Human; conditions: HeLa, Protocol B, GFP-NLS 5 μM, 10 seconds
From the text: as §2

[3] = as above; type: cell-based, human; conditions: human, THP-1 cells, Cell viability (%) (±St. Dev.; n = 3), THP-1; for viability at 15 s, 5 µM: shuttle 5 μM, 15 seconds
From the text: as §2

[4] = system: THP-1 cells; test: as above; type: cell-based, human; conditions: THP-1, daily 150 min exposure with serum, shuttle 0.8 μM, GFP-NLS 1 μM
From the text: as §2

[5] = Cell viability (%) by flow cytometry; type: cell-based; conditions: GFP-NLS 5 μM, read-out: Cell viability (%) (±St. Dev.; n = 3); for viability at 15 s, 5 µM: Protocol C, shuttle 5 μM, 15 seconds; for viability at 10 s, 35 µM: Protocol B, shuttle 35 μM, 10 seconds
Protocol: (§1) The ability of the shuttle agent His-CM18-PTD4 to deliver GFP-NLS to the nuclei of different adherent and suspension cells using Protocols B (adherent cells) or C (suspension cells) as described in Example 9.1 was examined. The cell lines tested included: HeLa, Balb3T3, HEK 293T, CHO, NIH3T3, Myoblasts, Jurkat, THP-1, CA46, and HT2 cells, which were cultured as described in Example 1. GFP-NLS (5 μM; see Example 5.1) was co-incubated with 35 μM of His-CM18-PTD4 and exposed to adherent cells for 10 seconds (Protocol B), or was co-incubated with 5 μM of His-CM18-PTD4 and exposed to suspension cells for 15 seconds (Protocol C). […] “Pos cells (%)” is the mean percentages of all cells that emanate a GFP signal.

[6] = Cell viability (%) by flow cytometry; type: cell-based, Chinese hamster; conditions: CHO cells, Protocol B, shuttle 35 μM, GFP-NLS 5 μM, 10 seconds, read-out: Cell viability (%) (±St. Dev.; n = 3)
Protocol: as §1

[7] = Cell viability (%) (±St. Dev.; n = 3), FIG. 22B, Protocol B, 10 seconds, read-out: Cell viability (%) (±St. Dev.; n = 3), FIG. 22B

HHHHHHKWKLFKKIGAVLKVLTTGYARAAARQARA [His-CM18-PTD4]
viability at 1 h, 10 µM ([1]; Cell viability (%) (± St. Dev.; n = 3), Protocol A, shuttle 10 μM, 1 hour): 96.4 ± 2.7%
viability at 10 s, 35 µM ([1]; Cell viability (%) (± St. Dev.; n = 3), Protocol B, 10 seconds, read-out: Cell viability (%) (± St. Dev.; n = 3)): 94.6 ± 0.4%
viability at 10 s, 10 µM ([1]; Cell viability (%) (±St. Dev.; n = 3), FIG. 22B, Protocol B, shuttle 10 μM, 10 seconds): 96.3 ± 2.3%
viability at 10 s, 25 µM ([1]; Cell viability (%) (±St. Dev.; n = 3), FIG. 22B, Protocol B, shuttle 25 μM, 10 seconds): 95.3 ± 3.7%
viability at 10 s, 35 µM [1, 7]: 79.6 ± 5.9%
viability at 10 s, 50 µM [1, 7]: 69.2 ± 2.7%
viability at 10 s, 50 µM ([1]; Cell viability (%) (±St. Dev.; n = 3), FIG. 29A, Protocol B, 10 seconds, read-out: Cell viability (%) (±St. Dev.; n = 3), FIG. 29A): 92 ± 3.6%
viability at 1 min, 10 µM ([1]; Cell viability (%) (±St. Dev.; n = 3), FIG. 29B, Protocol B, shuttle 10 μM, incubation 1 min., read-out: Cell viability (%) (±St. Dev.; n = 3), FIG. 29B): 97.6 ± 2.7%
viability at 2 min, 10 µM ([1]; Cell viability (%) (±St. Dev.; n = 3), FIG. 29B, Protocol B, shuttle 10 μM, incubation 2 min., read-out: Cell viability (%) (±St. Dev.; n = 3), FIG. 29B): 80.9 ± 3.2%
viability at 5 min, 10 µM ([1]; Cell viability (%) (±St. Dev.; n = 3), FIG. 29B, Protocol B, shuttle 10 μM, incubation 5 min., read-out: Cell viability (%) (±St. Dev.; n = 3), FIG. 29B): 66.2 ± 4.4%
viability at 1 min, 20 µM ([1]; Cell viability (%) (±St. Dev.; n = 3), FIG. 29I, Protocol B, shuttle 20 μM, 1 minute, read-out: Cell viability (%) (±St. Dev.; n = 3), FIG. 29I): 81.6 ± 4.5%
Cell viability (%) (±St. Dev.; n = 3) ([2]; shuttle 35 μM): 94.6 ± 0.4%
Cell viability (%) (±St. Dev.; n = 3), FIG. 29E ([2]; shuttle 50 μM): 92 ± 3.6%
viability at 1 h, 1 µM ([3]; FIG. 31, Protocol A, shuttle 1 μM, GFP-NLS 5 μM, 1 hour): 96.9 ± 3.6%
viability at 0.5 µM ([3]; FIG. 31, Protocol C, shuttle 0.5 μM, GFP-NLS 5 μM): 82.1 ± 2.7%
viability at 15 s, 5 µM ([3]; FIG. 31, Protocol C, GFP-NLS 5 μM, read-out: Cell viability (%) (±St. Dev.; n = 3), FIG. 31): 64 ± 4.1%
viability at 15 s, 1 µM ([3]; Protocol C, shuttle 1 μM, GFP-NLS 5 μM, incubation time 15 sec, read-out: Cell viability (%) (±St. Dev.; n = 3)): 90 ± 3%
viability at 0.5 min, 1 µM ([3]; Protocol C, shuttle 1 μM, GFP-NLS 5 μM, incubation time 30 sec, read-out: Cell viability (%) (±St. Dev.; n = 3)): 89 ± 1.1%
viability at 1 min, 1 µM ([3]; Protocol C, shuttle 1 μM, GFP-NLS 5 μM, incubation time 60 sec, read-out: Cell viability (%) (±St. Dev.; n = 3)): 85.3 ± 3.6%
viability at 2 min, 1 µM ([3]; Protocol C, shuttle 1 μM, GFP-NLS 5 μM, incubation time 120 sec, read-out: Cell viability (%) (±St. Dev.; n = 3)): 74.3 ± 3.2%
viability at 15 s, 5 µM ([3]; Protocol C, GFP-NLS 5 μM, read-out: Cell viability (%) (±St. Dev.; n = 3)): 64.1 ± 4.5%
viability at 24 h, 0.5 µM ([3]; daily 150 min exposure with serum, shuttle 0.5 μM, GFP-NLS 5 μM, exposure 1 day): 98.2 ± 2.4%
viability at 72 h, 0.5 µM ([3]; daily 150 min exposure with serum, shuttle 0.5 μM, GFP-NLS 5 μM, exposure 3 days): 84.3 ± 3.8%
viability at 24 h, 0.8 µM ([3]; daily 150 min exposure with serum, shuttle 0.8 μM, GFP-NLS 2.5 μM, exposure 1 day, read-out: Cell viability (%) (±St. Dev.; n = 3)): 92.3 ± 1.9%
viability at 72 h, 0.8 µM ([3]; daily 150 min exposure with serum, shuttle 0.8 μM, GFP-NLS 2.5 μM, exposure 3 days, read-out: Cell viability (%) (±St. Dev.; n = 3)): 68.5 ± 2.2%
Cell viability (%) (±St. Dev.; n = 3) ([4]; exposure 1 day): 98.4 ± 6.4%
Cell viability (%) (±St. Dev.; n = 3) ([4]; exposure 3 days): 80.6 ± 4.6%
viability at 15 s, 5 µM ([5]; human, CA46 cells): 71.6 ± 1%
viability at 10 s, 35 µM ([5]; human, HEK 293T cells): 95.3 ± 1.2%
viability at 15 s, 5 µM ([5]; human, Jurkat cells): 73.6 ± 0.7%
viability at 10 s, 35 µM ([5]; human, Myoblasts): 23.5 ± 1.1%
viability at 10 s, 35 µM ([5]; mouse, Balb3T3 cells): 98.4 ± 0.6%
viability at 15 s, 5 µM ([5]; mouse, HT2 cells): 90.6 ± 1.5%
viability at 10 s, 35 µM ([5]; mouse, NIH3T3 cells): 3.3 ± 5.4%
viability at 10 s, 35 µM [6]: 92.8 ± 0.1%
